# Test results from patent US12478640B2, “Inhalation of nitric oxide for treating respiratory diseases” (BEYOND AIR LTD, priority 2012, dated 2025).
# Like-named read-outs stand apart in the source and are kept apart here.
# Legend:
# S. aureus = details: solid media, cited from earlier work
# P. aeruginosa = details: solid media, cited from earlier work
# [1] = tested on: influenza A/victoria/H3N2; details: 160 ppm gNO, cited from earlier work
# [2] = tested on: bovine respiratory disease; details: intermittent gNO inhalation; cattle; cited from earlier work
# [3] = gNO concentrations below 200 ppm; 6 hours/day for 28 days; rats; cited from earlier work
# [4] = phase I safety study in healthy adults: adverse events and vital signs; type: in vivo, human; details: 160 ppm gNO 30 min, 5 times a day, 5 days
# From the text: (§1) Cohort: 10 healthy adult volunteer subjects (5 males, 5 females), aged 20 to 62 years, were enrolled in the study after screening their medical history, a physical examination, pulmonary function tests and blood values. Exclusion criteria included individuals less than 19 years of age, pregnant females and unwilling to practice birth control during the study, diagnosed with pulmonary disease, epistaxis, hemoptysis, methemoglobinemia, organ transplant recipient or receiving antibiotic therapy.
# (§2) Regimen and post-treatment: After obtaining informed consent, treatment was initiated within 5 days of enrollment. […] Subject safety was determined by monitoring vital signs, methemoglobin levels, lung function, blood chemistry, hematology, prothrombin time, inflammatory cytokine/chemokines levels and endothelial activation. […]
# (§3) General medical examinations were performed by a pulmonary physician on screening and on days 8, 12 and 26 to obtain oxygenation and vital sign measurements. […] Oxygenation was measured with a pulse oximeter (Rad 57, Masimo Corporation, USA) which was used according to manufacturer's guidelines to measure functional oxygen saturation of arterial hemoglobin (SPO2) and heart rate. These parameters were measured continuously during every gNO administration and for 3.5 hours after the first treatment of the day. […]
# [5] = tested on: chronic, non-healing wound; details: topical 200 ppm gNO; within the first three days; cited from earlier work
# [6] = healthy humans, cited from earlier work
# [7] = phase I safety study: pulmonary function tests; type: in vivo, human
# From the text: as §1
# (§4) Regimen and post-treatment: After obtaining informed consent, treatment was initiated within 5 days of enrollment. Subjects were housed in a hospital ward and received 160 ppm gNO for 30 minutes every four hours (Q4h), five times a day, for five consecutive days by inhalation. Subjects returned for follow-up evaluations 3, 7 and 21 days after the final gNO administration. Subject safety was determined by monitoring vital signs, methemoglobin levels, lung function, blood chemistry, hematology, prothrombin time, inflammatory cytokine/chemokines levels and endothelial activation. These parameters were compared to baseline and at various time-points during and after gNO administration.
# Subjects underwent full pulmonary function tests (PFT), including lung diffusing capacity (DLCO) by a trained technician utilizing a calibrated pulmonary function system (Jaeger MasterScreen, VIASYS Healthcare, USA) on screening and days 2, 8, 12 and 26. Spirometry test (Microloop by Micro Medical, England) was performed on days 1, 3 and 4. Effect of gNO on lung function and DLCO was determined by changes from baseline, treatment days and follow up days.
# [8] = tested on: Pseudomonas aeruginosa pneumonia; details: 160 ppm gNO, intermittent 30 minute exposures; rat; cited from earlier work
# [9] = tested on: five planktonic species of methicillin resistant S. aureus (MRSA); details: 1,600 ppm hours of gNO; all five strains; cited from earlier work
# [10] = cited from earlier work
# [11] = tested on: highly pathogenic Avian Influenza H7N3; details: cited from earlier work
# [12] = phase I safety study: oxygen saturation (SpO2) by pulse oximeter; type: in vivo, human
# From the text: as §1, §2, §3
# [13] = phase I safety study: plasma cytokines, cytometric bead array; type: in vivo, human; details: 160 ppm gNO inhalation vs baseline
# From the text: as §1, §4
# (§5) Hematological assessment included a complete blood count and differentials (hemoglobin, hematocrit, red blood cell count, white blood cell count, white blood cell differential, and platelet count) were obtained in order to monitor blood chemistry, hematology and inflammation measurements. The blood chemistry profile included serum creatinine, and liver function tests such as aspartate aminotransferase (AST) serum glutamic oxaloacetic transaminase (SGOT), alkaline phosphatase, and gamma-glutamyl transferase (GGT). The effect of gNO on coagulation was determined by the prothrombin time (PT) and its derived measures of prothrombin ratio (PR) and international normalized ratio (INR). Heparinized plasma was collected at baseline and on days 1, 2, 4, and 5 of gNO administration, and on follow-up days 3, 7 and 21 and frozen at −80° C. Plasma cytokine levels were assessed using the human inflammation cytokine bead array kit (BD Bioscience, Canada). Plasma levels of angiopoietin Ang-1 and Ang-2 were determined by ELISA (R&D Systems, USA).
# FIGS. 6A-F present blood levels of various cytokines before and after inhalation of 160 ppm gaseous nitric oxide by 10 healthy human individuals, as measured from blood samples collected within 7 days prior to gNO administration, each day during the treatment and 8, 12 and 26 days thereafter, wherein FIG. 6A presents the plasma levels of tumor necrosis factor (TNF)α, interleukin (IL)-1β data is presented in FIG. 6B, IL-6 in FIG. 6C, IL-8 in FIG. 6D, IL-10 in FIG. 6E and IL-12p70 in FIG. 6F, as determined by a cytometric bead array while statistical differences are compared by repeated measures ANOVA with Bonferroni post test for parametric data (IL-6, IL-8, IL-10, IL-12p70), or Friedman test with Dunn's post test for non-parametric data (TNF and IL-1b).
# variety of microbes = details: 200 ppm gNO, cited from earlier work
# [14] = phase I safety study: methemoglobin (SpMet) by pulse oximeter; type: in vivo, human
# From the text: as §1, §4
# The levels of gNO, NO2, O2 and methemoglobin were monitored during the administration of gNO. The target gas mixture was 160 ppm gNO with a nitrogen dioxide (NO2) level of less than 5 ppm and an oxygen (O2) level ranging from 21% to 25%. Inspiratory NO, NO2 and O2 levels were continuously monitored by sampling from the mouthpiece sample port located about 6 millimeters from the mouth of the subject with an AeroNOx (Pulmonox, AB, Canada) NO, NO2 and O2 electrochemical analyzer. Delivery safety was determined by the number of occasions that NO2 exceeded 5 ppm, gNO exceeding 10% variation and O2 dropping below 20% during gNO administration. A commercially available noninvasive pulse oximeter (Rad 57, Masimo Corporation, USA) was used to measure saturation levels at the periphery of methemoglobin (SpMet).
# These parameters were measured continuously during every gNO administration course and for 3.5 hours after the first treatment of the day. Daily serum samples were collected and frozen at −80° C. and the serum […] level was measured using the Griess reagent.
# [15] = phase I safety study: plasma angiopoietins Ang-1 and Ang-2; type: in vivo, human; details: 160 ppm gNO inhalation vs baseline
# From the text: as §1, §4
# as §5, with “Heparinized plasma was collected at baseline and on days 1, 2, 4, and 5 of gNO administration, and on follow-up days 3, 7 and 21 and frozen at −80° C.” left out, “USA). […]” for “USA).”
# [16] = gNO greater than 120 ppm, vs medical air
# [17] = during the course of the study vs baseline
smiles,measurement,setting,value
"[N]=O [gNO, nitric oxide]",survival (downward bactericidal trend),S. aureus; 50-160 ppm gNO,5-10%
same,reduction of colony formation,S. aureus; [16],greater than 90%
same,survival (downward bactericidal trend),P. aeruginosa; 50-160 ppm gNO,5-10%
same,reduction of colony formation,P. aeruginosa; [16],greater than 90%
same,infectivity of virions,[1]; MDCK cells,reducing the infectivity
same,"anti-viral effect, intermittent vs single exposure",[1]; one 30 minute dose vs three 30 minute treatments Q4h,more evident in the intermittent form of exposure
same,clinical symptoms of bovine respiratory disease,[2],decrease the clinical symptoms
same,deaths,[3],No deaths occurred
same,tolerability of treatments,"[4]; 10 healthy adults, 250 administrations",well tolerated
same,minor adverse events reported,"[4]; arm bruising from blood draws (1), numbing of tongue (2)",Three minor adverse events
same,biofilm of the wound,[5],no longer visibly present
same,MetHb level,[6]; inhalation of 128 ppm for 3 hours,> 5%
same,MetHb level,[6]; inhalation of 512 ppm for 55 minutes,> 5%
same,pulmonary function tests,[7]; during and after 160 ppm gNO treatments,did not reveal any abnormalities
same,FEV1,[7]; [17],did not differ from baseline
same,maximum mid-expiratory flow (MMEF),[7]; [17],did not differ from baseline
same,leukocyte infiltration,[8],effective to reduce
same,pulmonary bioburden,[8],effective to reduce
same,population of planktonic MRSA strains,[9],reduction in the population
same,mortality,"[10]; 300 ppm gNO, first 1-2 days, group of 10 rats",Six of the animals treated with 300 ppm gNO died
same,mortality,"[10]; 400 ppm gNO, first day of exposure, groups of 10 rats",all of the animals died
same,mortality,"[10]; 500 ppm gNO, first day of exposure, groups of 10 rats",all of the animals died
same,infectivity of virions,[11],reducing the infectivity
same,SpO2 change between pretreatment and post treatment,"[12]; 160 ppm gNO, not significant statistically nor clinically",decreased slightly
same,hypoxemia (less than 85% SpO2),[12]; during or after 160 ppm gNO administration,No sudden incidences of hypoxemia
same,plasma IL-1b level,[13],unaffected
same,plasma IL-6 level,[13],unaffected
same,plasma IL-8 level,[13],unaffected
same,plasma IL-10 level,[13],unaffected
same,plasma IL-12p70 level,[13],unaffected
same,plasma TNF level,[13],unaffected
same,bactericidal effect,variety of microbes; all microorganisms tested,complete bactericidal effect
same,reduction in CFU/mL,variety of microbes; every bacteria challenged,≥ 3 log10
same,follow-up SpMet,"[14]; 3, 7 and 21 days after final exposure",did not show any residual increase in SpMet
same,all 930 recorded methemoglobin percent levels (SpMet),"[14]; 160 ppm gNO 30 min, 5 times a day, 5 days",< 5%
same,SpMet increase between pretreatment and post treatment,"[14]; 160 ppm gNO 30 min, p<0.001",about 1%
same,time for SpMet to return to baseline,"[14]; after 160 ppm gNO 30 min, prior to next administration",3.5 h
same,highest SpMet,"[14]; at the end of the 30 minutes treatment, 160 ppm gNO",2.5%
same,accumulation of SpMet with repeated treatments,[14]; five daily treatments for five consecutive days,no accumulative or lingering effect
same,SpMet level of subjects undergoing the method,[14]; general statement referring to the Examples,≤ 1%
same,average increase of SpMet,"[14]; single 30 minutes treatment course, 160 ppm gNO, baseline 0.16 percent",0.9%
same,Ang-2/Ang-1 ratio,[15],not affected
same,plasma Ang-1,[15],unaffected
same,plasma Ang-2,[15],not affected
